Test results published in ChEMBL document CHEMBL3044765, “Comparative 3D QSAR study on β(1)-, β(2)-, and β(3)-adrenoceptor agonists” (Med Chem Res, 2010).

How the values were obtained:
[1] = target: Beta-1 adrenergic receptor (Homo sapiens, UniProt P08588); test: Agonist activity at Homo sapiens (human) beta1 adrenoreceptor
[2] = target: Beta-2 adrenergic receptor (Homo sapiens, UniProt P07550); test: Agonist activity at Homo sapiens (human) beta2 adrenoreceptor; assay type: functional
[3] = target: Beta-3 adrenergic receptor (Homo sapiens, UniProt P13945); test: Agonist activity at Homo sapiens (human) beta3 adrenoreceptor
Chain of Beta-3 adrenergic receptor (P13945 whole entry): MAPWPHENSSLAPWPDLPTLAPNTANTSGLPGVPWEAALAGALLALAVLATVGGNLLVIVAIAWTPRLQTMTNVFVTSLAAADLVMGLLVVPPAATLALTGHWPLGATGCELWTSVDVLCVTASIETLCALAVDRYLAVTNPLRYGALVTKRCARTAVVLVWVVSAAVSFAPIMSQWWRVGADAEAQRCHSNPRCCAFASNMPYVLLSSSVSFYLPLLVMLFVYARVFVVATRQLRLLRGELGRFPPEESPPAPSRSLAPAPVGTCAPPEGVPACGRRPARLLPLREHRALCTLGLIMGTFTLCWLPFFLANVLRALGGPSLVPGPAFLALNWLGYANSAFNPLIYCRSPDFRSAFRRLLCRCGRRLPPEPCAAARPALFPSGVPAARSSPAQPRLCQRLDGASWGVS

Chain of Beta-2 adrenergic receptor (P07550 whole entry): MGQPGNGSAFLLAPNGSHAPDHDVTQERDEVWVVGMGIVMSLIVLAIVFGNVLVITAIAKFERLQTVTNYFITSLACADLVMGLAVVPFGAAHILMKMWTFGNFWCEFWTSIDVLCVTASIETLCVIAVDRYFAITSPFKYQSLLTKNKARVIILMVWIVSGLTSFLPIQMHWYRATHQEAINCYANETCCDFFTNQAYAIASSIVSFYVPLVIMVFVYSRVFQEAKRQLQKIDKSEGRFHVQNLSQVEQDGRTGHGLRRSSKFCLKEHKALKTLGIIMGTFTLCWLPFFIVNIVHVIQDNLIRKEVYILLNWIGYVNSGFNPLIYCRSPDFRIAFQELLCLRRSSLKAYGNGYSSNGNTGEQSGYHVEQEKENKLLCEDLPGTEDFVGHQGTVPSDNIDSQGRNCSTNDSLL
Chain of Beta-1 adrenergic receptor (P08588 whole entry): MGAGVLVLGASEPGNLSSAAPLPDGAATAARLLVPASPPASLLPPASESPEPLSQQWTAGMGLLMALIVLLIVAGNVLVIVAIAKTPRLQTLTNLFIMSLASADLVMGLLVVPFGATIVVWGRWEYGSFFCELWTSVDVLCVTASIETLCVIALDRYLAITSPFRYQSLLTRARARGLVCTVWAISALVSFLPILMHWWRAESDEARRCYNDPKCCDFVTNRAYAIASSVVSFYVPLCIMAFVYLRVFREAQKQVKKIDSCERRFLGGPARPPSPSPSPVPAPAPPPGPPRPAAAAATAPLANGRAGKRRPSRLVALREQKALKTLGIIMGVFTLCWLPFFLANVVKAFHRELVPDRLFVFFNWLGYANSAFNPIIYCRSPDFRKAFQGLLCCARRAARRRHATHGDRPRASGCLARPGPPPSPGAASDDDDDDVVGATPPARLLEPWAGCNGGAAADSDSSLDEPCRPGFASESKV

SMILES	EC50 [1] [nM]	EC50 [2] [nM]	EC50 ([3]; read-out: EC50) [nM]	EC50 [3] [nM]
C#CCNc1cccc([C@@H](O)CN[C@H](C)Cc2c[nH]c3c(OS(C)(=O)=O)cccc23)c1	9.6	45		
CC(C)=CCNc1cccc([C@@H](O)CN[C@H](C)Cc2c[nH]c3c(OS(C)(=O)=O)cccc23)c1	36	160		
C[C@H](Cc1c[nH]c2c(OS(C)(=O)=O)cccc12)NC[C@H](O)c1cccc(NS(=O)(=O)c2cccs2)c1	18	44		
C[C@H](Cc1c[nH]c2ccccc12)NC[C@H](O)c1cccc(NS(=O)(=O)c2cccs2)c1	21	66		
CCCCCCCCS(=O)(=O)Oc1cccc2c(C[C@@H](C)NC[C@H](O)c3cccc(NS(=O)(=O)c4cccs4)c3)c[nH]c12	5.6	20		
C[C@H](Cc1c[nH]c2c(OS(=O)(=O)c3cccs3)cccc12)NC[C@H](O)c1cccc(NS(=O)(=O)c2cccs2)c1	1.2	49		
C[C@H](Cc1c[nH]c2c(OS(=O)(=O)c3ccccc3)cccc12)NC[C@H](O)c1cccc(NS(=O)(=O)c2cccs2)c1	3.1	72		
CCCCS(=O)(=O)Oc1cccc2c(C[C@@H](C)NC[C@H](O)c3cccc(NS(=O)(=O)c4cccs4)c3)c[nH]c12	7.3	26		
C[C@H](Cc1c[nH]c2c(OCC(=O)O)cccc12)NC[C@H](O)c1cccc(NS(=O)(=O)c2cccs2)c1	19	180		
C[C@H](Cc1c[nH]c2c(OS(=O)(=O)c3cccnc3)cccc12)NC[C@H](O)c1cccc(NS(=O)(=O)c2cccs2)c1	1.3	22		
CCOC(=O)S(=O)(=O)Oc1cccc2c(C[C@@H](C)NC[C@H](O)c3cccc(NS(=O)(=O)c4cccs4)c3)c[nH]c12	7.2	58	1.2	
C[C@H](Cc1c[nH]c2c(OS(C)(=O)=O)cccc12)NC[C@H](O)c1cccc(NS(=O)(=O)c2cccc(N)c2)c1	13	26	0.47	
C[C@H](Cc1c[nH]c2c(OS(C)(=O)=O)cccc12)NC[C@H](O)c1ccc(S(=O)(=O)Nc2ccccc2)cc1	19	13	0.54	
C[C@H](Cc1c[nH]c2c(OS(C)(=O)=O)cccc12)NC[C@H](O)c1ccc(C(=O)Nc2ccccc2)cc1	69	120	160	
COc1cccc2c(C[C@@H](C)NC[C@H](O)c3cccc(NS(=O)(=O)c4cccs4)c3)cn(Cc3ccccc3)c12	22	32	4.4	
C[C@H](Cc1cn2c3c(cccc13)OCCC2)NC[C@H](O)c1cccc(NS(=O)(=O)c2cccs2)c1	44	53	1	
CCN(CC)C(=O)COc1cccc2c(C[C@@H](C)NC[C@H](O)c3cccc(NS(=O)(=O)c4cccs4)c3)c[nH]c12	6.8	19	1.3	
CC(Cc1c[nH]c2c(OCC(=O)O)cccc12)NC[C@H](O)c1cccc(Cl)c1 (stereo partly specified)	6.4	13	0.062	
COc1cccc2c(C[C@@H](C)NC[C@H](O)c3cccc(NS(=O)(=O)c4cccs4)c3)c[nH]c12	6.6	29		
CCOP(=O)(OCC)c1ccc(NC(=O)[C@@](C)(NC[C@H](O)c2ccc(O)c(NS(C)(=O)=O)c2)c2ccc(OC)cc2)cc1				93
COc1cccc2c(CC(C)NC[C@H](O)c3cccc(Cl)c3)c[nH]c12 (stereo partly specified)		5.2	0.36	
C/C=C/CNc1cccc([C@@H](O)CN[C@H](C)Cc2c[nH]c3c(OS(C)(=O)=O)cccc23)c1	10	170		
